In ChEMBL document CHEMBL3232729, “Marsupellins A-F, ent-longipinane-type sesquiterpenoids from the Chinese liverwort Marsupella alpine with acetylcholinesterase inhibitory activity” (J Nat Prod, 2014):

Biological target: Acetylcholinesterase (Homo sapiens) (UniProt P22303)
Sequence (P22303 whole entry): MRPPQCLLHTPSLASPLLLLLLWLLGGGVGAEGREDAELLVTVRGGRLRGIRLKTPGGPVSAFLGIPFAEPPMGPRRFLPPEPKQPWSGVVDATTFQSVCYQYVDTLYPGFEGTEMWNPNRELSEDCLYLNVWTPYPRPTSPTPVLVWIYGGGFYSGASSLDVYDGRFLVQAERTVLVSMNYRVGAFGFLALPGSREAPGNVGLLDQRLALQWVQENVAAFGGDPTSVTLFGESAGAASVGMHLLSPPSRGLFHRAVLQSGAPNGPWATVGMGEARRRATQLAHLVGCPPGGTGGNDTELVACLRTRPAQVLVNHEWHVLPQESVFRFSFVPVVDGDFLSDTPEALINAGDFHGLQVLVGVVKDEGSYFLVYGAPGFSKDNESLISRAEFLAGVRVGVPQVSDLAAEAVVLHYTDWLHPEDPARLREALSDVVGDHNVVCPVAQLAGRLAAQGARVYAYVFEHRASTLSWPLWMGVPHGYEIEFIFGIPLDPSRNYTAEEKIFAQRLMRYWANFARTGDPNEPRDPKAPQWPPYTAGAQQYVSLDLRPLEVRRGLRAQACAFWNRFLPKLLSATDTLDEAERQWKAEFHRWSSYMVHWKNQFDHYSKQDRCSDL
Description: Inhibition of AChE (unknown origin) assessed as minimum inhibitory concentration by bioautographic TLC assay

`C=C1[C@H](O)C[C@H]2[C@H]3[C@@H]1C2(COC(C)=O)CCCC3(C)C` and `C=C1C(=O)C[C@H]2[C@H]3[C@@H]1C2(COC(C)=O)CCCC3(C)C` are the same in MIC: 4 µg for the first, 4 µg for the second.

Compared with `C[C@@H]1C(=O)C[C@H]2[C@H]3[C@@H]1C2(C)CCCC3(C)C`, `C[C@H]1[C@@H]2[C@@H]3[C@@H]4C[C@@]1(O)OC(=O)[C@@]24CCCC3(C)C` is lower in MIC: 4 µg for the first, 0.6 µg for the second.

`C=C1OC(=O)C[C@H]2[C@H]3[C@@H]1[C@]2(COC(C)=O)CCCC3(C)C` and `CC(=O)OC[C@]12CCCC(C)(C)[C@@H]3[C@H]1[C@]1(CO1)C(=O)C[C@@H]32` are the same in MIC: 4 µg for the first, 4 µg for the second.

Going from `CC(=O)OC[C@]12CCCC(C)(C)[C@@H]3[C@H]1[C@@]1(CO1)C(=O)C[C@@H]32` to `C[C@H]1[C@@H]2[C@@H]3[C@@H]4C[C@@]1(O)OC[C@@]24CCCC3(C)C`, the MIC falls from 4 µg to 0.8 µg.

In the case of `C=C1[C@@H](O)[C@H](O)[C@H]2[C@H]3[C@@H]1C2(C)CCCC3(C)C`, the MIC is reported as 4 µg.
